Source: doi:10.1101/2025.11.11.687791v2, “Structural basis for multiple binding modes of antimalarial ligands targeting Plasmodium falciparum NCR1” (biorxiv, 2026)

What was measured:
Assay type in all cases: binding
PfNCR1 [1] = molecular target: T1, PfNCR1 (Plasmodium falciparum, UniProt Q8I266); test: cryo-EM structure of the complex; conditions: ecto site, alongside CHS; GDN
T1 construct: gene NCR1; CHS added for structural samples
T1 sequence (Q8I266 1-1470): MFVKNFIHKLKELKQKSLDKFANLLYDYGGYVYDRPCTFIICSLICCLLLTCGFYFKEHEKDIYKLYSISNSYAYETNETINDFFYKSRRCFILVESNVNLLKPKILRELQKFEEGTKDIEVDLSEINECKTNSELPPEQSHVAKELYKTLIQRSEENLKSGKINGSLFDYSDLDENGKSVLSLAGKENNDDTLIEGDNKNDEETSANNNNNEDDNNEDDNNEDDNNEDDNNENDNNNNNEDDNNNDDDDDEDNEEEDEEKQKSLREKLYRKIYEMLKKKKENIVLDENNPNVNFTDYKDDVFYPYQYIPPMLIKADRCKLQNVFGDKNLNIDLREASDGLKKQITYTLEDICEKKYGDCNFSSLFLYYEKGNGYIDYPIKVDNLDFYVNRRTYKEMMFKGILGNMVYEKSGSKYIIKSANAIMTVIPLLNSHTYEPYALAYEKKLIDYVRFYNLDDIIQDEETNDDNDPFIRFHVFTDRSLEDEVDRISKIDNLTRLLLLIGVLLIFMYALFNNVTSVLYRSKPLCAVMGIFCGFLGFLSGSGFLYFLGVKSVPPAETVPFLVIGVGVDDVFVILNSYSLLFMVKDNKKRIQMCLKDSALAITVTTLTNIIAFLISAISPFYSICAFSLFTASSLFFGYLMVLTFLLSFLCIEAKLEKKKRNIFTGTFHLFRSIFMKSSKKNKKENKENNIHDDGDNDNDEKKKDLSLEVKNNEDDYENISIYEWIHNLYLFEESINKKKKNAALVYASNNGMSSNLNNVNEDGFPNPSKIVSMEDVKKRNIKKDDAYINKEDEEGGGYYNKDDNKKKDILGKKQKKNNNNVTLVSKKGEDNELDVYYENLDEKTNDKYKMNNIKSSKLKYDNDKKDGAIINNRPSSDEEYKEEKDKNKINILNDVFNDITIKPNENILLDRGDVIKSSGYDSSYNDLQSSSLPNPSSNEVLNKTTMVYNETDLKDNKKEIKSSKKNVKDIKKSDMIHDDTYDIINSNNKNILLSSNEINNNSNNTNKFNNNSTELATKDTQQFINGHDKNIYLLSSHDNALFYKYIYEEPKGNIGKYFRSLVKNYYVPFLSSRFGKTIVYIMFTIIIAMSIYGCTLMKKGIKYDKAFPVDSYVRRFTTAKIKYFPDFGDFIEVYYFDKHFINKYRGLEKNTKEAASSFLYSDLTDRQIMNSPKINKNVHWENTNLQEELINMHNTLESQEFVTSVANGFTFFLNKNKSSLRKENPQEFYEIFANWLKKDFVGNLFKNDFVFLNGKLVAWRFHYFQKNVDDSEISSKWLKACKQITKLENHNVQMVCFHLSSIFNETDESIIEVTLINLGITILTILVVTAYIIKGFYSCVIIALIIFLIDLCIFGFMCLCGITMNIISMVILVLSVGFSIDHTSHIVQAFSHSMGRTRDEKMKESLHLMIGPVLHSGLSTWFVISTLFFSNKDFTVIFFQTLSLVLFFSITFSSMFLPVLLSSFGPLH

PfNCR1 [2] = molecular target: T1, PfNCR1; test: cryo-EM structure of the complex, […] Å; conditions: 1 mM compound; ecto site, displaces CHS
PfNCR1 [3] = molecular target: T1, PfNCR1; test: tryptophan fluorescence quenching; conditions: purified protein in GDN; ecto site

| Structure (SMILES) | cryo-EM structure of the complex (PfNCR1 [1]) | cryo-EM structure of the complex, 3.69 Å (PfNCR1 [2]) | apparent Kd (PfNCR1 [3]) |
| --- | --- | --- | --- |
| COc1ccc(N2CCN(C(CNC(=O)c3c(F)cccc3F)c3ccc4c(c3)OCO4)CC2)cc1 (stereo not drawn) [Compound 4, G856-4236] | the new compound was bound to the ecto site without displacing the sterol | – | – |
| CC(C)c1cccc(C(NC(=O)C2Cc3ccccc3CN2C(=O)c2cccc(N3CCOCC3)c2)C2CCCC2)c1 (stereo not drawn) [Compound 2, MMV028038] | – | this ligand completely displaces the CHS molecule in the ECD sterol site | tryptophan quenching-based binding assays revealed the apparent Kd values in the micromolar range |
